Results published in patent publication US8940744B2, “Pyrazolopyrimidine compounds as kinase inhibitors” (Principia Biopharma Inc., priority 2012, dated 2015).

Each compound was assayed against protein target (Homo sapiens (Human), UniProt Q06187) (assay: Reversibility of binding (compound in solution before and after target perturbation, HPLC-MS/MS)). Settings: after 5 M guanidine hydrochloride denaturation and trypsin digestion.
Chain of protein target (Q06187 whole entry): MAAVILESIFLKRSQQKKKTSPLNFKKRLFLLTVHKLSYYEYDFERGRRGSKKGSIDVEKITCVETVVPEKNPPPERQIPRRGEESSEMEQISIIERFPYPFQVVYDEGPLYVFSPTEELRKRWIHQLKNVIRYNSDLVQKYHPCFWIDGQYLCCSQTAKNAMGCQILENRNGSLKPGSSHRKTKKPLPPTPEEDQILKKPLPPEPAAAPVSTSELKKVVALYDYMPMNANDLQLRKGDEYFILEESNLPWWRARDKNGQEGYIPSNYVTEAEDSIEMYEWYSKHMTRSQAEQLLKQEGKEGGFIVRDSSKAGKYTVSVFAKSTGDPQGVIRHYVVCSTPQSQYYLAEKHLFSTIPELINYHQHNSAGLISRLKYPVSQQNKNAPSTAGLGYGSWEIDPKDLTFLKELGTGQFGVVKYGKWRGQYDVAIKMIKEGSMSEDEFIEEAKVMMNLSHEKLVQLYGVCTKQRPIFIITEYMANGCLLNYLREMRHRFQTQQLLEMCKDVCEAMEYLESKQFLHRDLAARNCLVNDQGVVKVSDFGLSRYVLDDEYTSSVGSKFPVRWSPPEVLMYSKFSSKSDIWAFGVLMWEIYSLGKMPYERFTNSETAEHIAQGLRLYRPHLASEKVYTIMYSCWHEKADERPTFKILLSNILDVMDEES
Procedure: The following approach was developed to differentiate compounds that form irreversible covalent bond with their targets, such as non-cyano containing acrylamide compounds, from compound that form reversible covalent bond i.e., compounds and/or pharmaceutically acceptable salts of the present disclosure. […] The reactions were then treated with perturbations including both denaturation with 5 M guanidine hydrochloride and digestion with trypsin, disrupting proper folding of the target. […] The concentration of compound in solution was assessed both preceding and following perturbation using high performance liquid chromatography (HPLC) coupled to tandem mass spectrometry.
For `CN(C1COC1)C(C)(C)C=C(C#N)C(=O)N1CCC[C@H]1Cn1nc(-c2ccc(Oc3ccccc3)cc2F)c2c(N)ncnc21` [Example 10, 2-[(2S)-2-[[4-amino-3-(2-fluoro-4-phenoxy-phenyl)pyrazolo[3,4-d]pyrimidin-1-yl]methyl]pyrrolidine-1-carbonyl]-4-methyl-4-[methyl(oxetan-3-yl)amino]pent-2-enenitrile], the “Compound in solution in the denatured or digested state?” value was “yes”.

Same assay, conditions: native (folded) target, target in excess of compound
For `CN(C1COC1)C(C)(C)C=C(C#N)C(=O)N1CCC[C@H]1Cn1nc(-c2ccc(Oc3ccccc3)cc2F)c2c(N)ncnc21` [Example 10, 2-[(2S)-2-[[4-amino-3-(2-fluoro-4-phenoxy-phenyl)pyrazolo[3,4-d]pyrimidin-1-yl]methyl]pyrrolidine-1-carbonyl]-4-methyl-4-[methyl(oxetan-3-yl)amino]pent-2-enenitrile], the “Compound in solution in the native state?” value was “no”.

Each compound was assayed against human recombinant Btk (Homo sapiens (Human), UniProt Q06187) (assay: Btk Enzymatic Activity Assay (Caliper-based kinase assay)). Settings: not given.
Chain of human recombinant Btk (Q06187 whole entry): as above
Format: biochemical
Procedure: A Caliper-based kinase assay (Caliper Life Sciences, Hopkinton, Mass.) was used to measure inhibition of Btk kinase activity of a compound of the present disclosure. […] The reaction was then terminated with EDTA, final concentration 20 mM and the phosphorylated reaction product was quantified on a Caliper Desktop Profiler (Caliper LabChip 3000). […] This value is presented as the IC50.
Compound `CN1CCN(C(C)(C)C=C(C#N)C(=O)N2CCC[C@H]2Cn2nc(-c3ccc(Oc4ccccc4)cc3F)c3c(N)ncnc32)CC1` [Example 8, 2-[(2S)-2-[[4-amino-3-(2-fluoro-4-phenoxyphenyl)pyrazolo[3,4-d]pyrimidin-1-yl]-methyl]pyrrolidine-1-carbonyl]-4-methyl-4-(4-methylpiperazin-1-yl)pent-2-enenitrile] has an IC50 of 3.8 nM.
For `CCN1CCN(C(C)(C)C=C(C#N)C(=O)N2CCC[C@H]2Cn2nc(-c3ccc(Oc4ccccc4)cc3F)c3c(N)ncnc32)CC1` [Example 8A, 2-[(2S)-2-[[4-amino-3-(2-fluoro-4-phenoxyphenyl)pyrazolo[3,4-d]pyrimidin-1-yl]-methyl]pyrrolidine-1-carbonyl]-4-methyl-4-(4-ethylpiperazin-1-yl)pent-2-enenitrile], the IC50 was 0.9 nM.
`CC(C)(C=C(C#N)C(=O)N1CCC[C@H]1Cn1nc(-c2ccc(Oc3ccccc3)cc2F)c2c(N)ncnc21)N1CC2(COC2)C1` [Example 19a, (S)-2-(2-((4-amino-3-(2-fluoro-4-phenoxyphenyl)-1H-pyrazolo[3,4-d]pyrimidin-1-yl)methyl)pyrrolidine-1-carbonyl)-4-methyl-4-(2-oxa-6-azaspiro[3.3]heptan-6-yl)pent-2-enenitrile] showed an IC50 of 5.6 nM.

Same assay, conditions: human recombinant Btk 0.5 nM, ATP 16 μM, room temperature 3 h
`CC(C)(C=C(C#N)C(=O)N1CCC[C@H]1Cn1nc(-c2ccc(Oc3ccccc3)cc2F)c2c(N)ncnc21)N1CCCC1` [Example 5, (S)-2-(2-((4-amino-3-(2-fluoro-4-phenoxyphenyl)-1H-pyrazolo[3,4-d]-pyrimidin-1-yl)-methyl)pyrrolidine-1-carbonyl)-4-methyl-4-(pyrrolidin-1-yl)pent-2-enenitrile] was tested, and the IC50 was 1.9 nM.
For `CC(C)(C=C(C#N)C(=O)N1CCC[C@@H](n2nc(-c3ccc(Oc4ccccc4)cc3F)c3c(N)ncnc32)C1)N1CC(O)C1` [Example 7, 2-((R)-3-(4-amino-3-(2-fluoro-4-phenoxyphenyl)-1H-pyrazolo[3,4-d]pyrimidin-1-yl)piperidine-1-carbonyl)-4-(3-hydroxyazetidin-1-yl)-4-methylpent-2-enenitrile], the IC50 was 0.9 nM.
`CC(C)(C=C(C#N)C(=O)N1CCC[C@H]1Cn1nc(-c2ccc(Oc3ccccc3)cc2F)c2c(N)ncnc21)N1CCNCC1` [Example 9, 2-[(2S)-2-[[4-amino-3-(2-fluoro-4-phenoxy-phenyl)pyrazolo[3,4-d]pyrimidin-1-yl]methyl]pyrrolidine-1-carbonyl]-4-methyl-4-piperazin-1-yl-pent-2-enenitrile] gave an IC50 of 4.7 nM.
`CN(C1COC1)C(C)(C)C=C(C#N)C(=O)N1CCC[C@H]1Cn1nc(-c2ccc(Oc3ccccc3)cc2F)c2c(N)ncnc21` [Example 10, 2-[(2S)-2-[[4-amino-3-(2-fluoro-4-phenoxy-phenyl)pyrazolo[3,4-d]pyrimidin-1-yl]methyl]pyrrolidine-1-carbonyl]-4-methyl-4-[methyl(oxetan-3-yl)amino]pent-2-enenitrile] was tested, and the IC50 was 2.1 nM.
Compound `CN(C1COC1)C(C)(C)C=C(C#N)C(=O)N1CCC[C@@H](n2nc(-c3ccc(Oc4ccccc4)cc3F)c3c(N)ncnc32)C1` [Example 13, 2-[(3R)-3-[4-amino-3-(2-fluoro-4-phenoxy-phenyl)pyrazolo[3,4-d]pyrimidin-1-yl]piperidine-1-carbonyl]-4-methyl-4-[methyl(oxetan-3-yl)amino]pent-2-enenitrile] has an IC50 of 0.6 nM.
In the case of `CCN(C1COC1)C(C)(C)C=C(C#N)C(=O)N1CCC[C@@H](n2nc(-c3ccc(Oc4ccccc4)cc3F)c3c(N)ncnc32)C1` [Example 13a, (R)-2-(3-(4-amino-3-(2-fluoro-4-phenoxyphenyl)-1H-pyrazolo[3,4-d]pyrimidin-1-yl)piperidine-1-carbonyl)-4-(ethyl(oxetan-3-yl)amino)-4-methylpent-2-enenitrile], the IC50 is reported as 0.9 nM.
`CC(C)(C=C(C#N)C(=O)N1CCC1Cn1nc(-c2ccc(Oc3ccccc3)cc2F)c2c(N)ncnc21)N1CCOCC1` (stereo not shown) [Example 15, 2-[2-[[4-amino-3-(2-fluoro-4-phenoxy-phenyl)pyrazolo[3,4-d]pyrimidin-1-yl]methyl]azetidine-1-carbonyl]-4-methyl-4-morpholino-pent-2-enenitrile] showed an IC50 of 4.1 nM.
Compound `CC(C)(C=C(C#N)C(=O)N1CCC[C@@H](n2nc(-c3ccc(Oc4ccccc4)cc3F)c3c(N)ncnc32)C1)N1CCC(O)CC1` [Example 18, (R)-2-(3-(4-amino-3-(2-fluoro-4-phenoxyphenyl)-1H-pyrazolo[3,4-d]pyrimidin-1-yl)piperidine-1-carbonyl)-4-(4-hydroxypiperidin-1-yl)-4-methylpent-2-enenitrile] has an IC50 of 0.7 nM.
`CC(C)(/C=C(\C#N)C(=O)N1CCC[C@@H](n2nc(-c3ccc(Oc4ccccc4)cc3F)c3c(N)ncnc32)C1)N1CC2(COC2)C1` [Example 19, 2-[(3R)-3-[4-amino-3-(2-fluoro-4-phenoxy-phenyl)pyrazolo[3,4-d]pyrimidin-1-yl]piperidine-1-carbonyl]-4-methyl-4-(6-oxa-2-azaspiro[3.3]heptan-2-yl)pent-2-enenitrile] gave an IC50 of 1.5 nM.
`CCN1CCN(C(C)(C)C=C(C#N)C(=O)N2CCC[C@@H](n3nc(-c4ccc(Oc5ccccc5)cc4F)c4c(N)ncnc43)C2)CC1` [Example 20, 2-[(3R)-3-[4-amino-3-(2-fluoro-4-phenoxy-phenyl)pyrazolo[3,4-d]-pyrimidin-1-yl]piperidine-1-carbonyl]-4-(4-ethylpiperazin-1-yl)-4-methyl-pent-2-enenitrile] was tested, and the IC50 was 0.9 nM.
`CC(C)N1CCN(C(C)(C)C=C(C#N)C(=O)N2CCC[C@@H](n3nc(-c4ccc(Oc5ccccc5)cc4F)c4c(N)ncnc43)C2)CC1` [Example 21, (R)-2-(3-(4-amino-3-(2-fluoro-4-phenoxyphenyl)-1H-pyrazolo[3,4-d]pyrimidin-1-yl)piperidine-1-carbonyl)-4-(4-isopropylpiperazin-1-yl)-4-methylpent-2-enenitrile] was tested, and the IC50 was 0.7 nM.
Compound `CC(C)(C=C(C#N)C(=O)N1CCC[C@@H](n2nc(-c3ccc(Oc4ccccc4)cc3F)c3c(N)ncnc32)C1)N1CCN(S(C)(=O)=O)CC1` [Example 25, (R)-2-(3-(4-amino-3-(2-fluoro-4-phenoxyphenyl)-1H-pyrazolo[3,4-d]pyrimidin-1-yl)piperidine-1-carbonyl)-4-methyl-4-(4-(methylsulfonyl)piperazin-1-yl)pent-2-enenitrile] has an IC50 of 1.4 nM.
`CC(C)(C=C(C#N)C(=O)N1CCC[C@H]1Cn1nc(-c2ccc(Oc3ccccc3)cc2F)c2c(N)ncnc21)CN1CCOCC1` [Example 30, (S)-2-(2-((4-amino-3-(2-fluoro-4-phenoxyphenyl)-1H-pyrazolo[3,4-d]pyrimidin-1-yl)methyl)pyrrolidine-1-carbonyl)-4,4-dimethyl-5-morpholinopent-2-enenitrile] gave an IC50 of 5.2 nM.
With `CCN1CCN(C(C)(C)C=C(C#N)C(=O)N2CCC[C@@H](n3nc(-c4ccc(Oc5ccccc5)cc4F)c4c(N)ncnc43)C2)CC1=O` [Example 34, (R)-2-(3-(4-amino-3-(2-fluoro-4-phenoxyphenyl)-1H-pyrazolo[3,4-d]pyrimidin-1-yl)piperidine-1-carbonyl)-4-(4-ethyl-3-oxopiperazin-1-yl)-4-methylpent-2-enenitrile] the IC50 was 1.3 nM.
